Experimental data from PMC9643419 (Nature Communications, 2022).

How the values were obtained:
TEAD2 = TEAD2 (Homo sapiens, UniProt Q15562); test: in vitro autopalmitoylation of recombinant TEAD2 with alkyne palmitoyl-CoA, click/streptavidin blot; type: biochemical
TEAD4 = TEAD4 (Homo sapiens, UniProt Q15561); test: TEAD4 biochemical palmitoylation assay
TEAD1 = TEAD1 (Homo sapiens, UniProt P28347); test: cell-based TEAD1 palmitoylation (alkyne palmitic acid labelling, HEK293A)
Chain of TEAD1 (P28347 whole entry): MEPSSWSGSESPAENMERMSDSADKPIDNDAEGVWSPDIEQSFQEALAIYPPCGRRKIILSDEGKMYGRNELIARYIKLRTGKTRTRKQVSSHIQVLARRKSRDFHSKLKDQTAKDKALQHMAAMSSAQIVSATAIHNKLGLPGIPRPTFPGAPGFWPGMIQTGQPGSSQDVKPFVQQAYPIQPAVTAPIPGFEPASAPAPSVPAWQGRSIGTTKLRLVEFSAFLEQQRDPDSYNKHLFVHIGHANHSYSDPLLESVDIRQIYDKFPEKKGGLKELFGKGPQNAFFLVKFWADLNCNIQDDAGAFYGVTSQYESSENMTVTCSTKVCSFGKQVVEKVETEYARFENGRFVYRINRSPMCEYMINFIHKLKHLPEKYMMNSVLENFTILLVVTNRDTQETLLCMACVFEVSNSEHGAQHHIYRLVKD

Chain of TEAD2 (Q15562 217-447): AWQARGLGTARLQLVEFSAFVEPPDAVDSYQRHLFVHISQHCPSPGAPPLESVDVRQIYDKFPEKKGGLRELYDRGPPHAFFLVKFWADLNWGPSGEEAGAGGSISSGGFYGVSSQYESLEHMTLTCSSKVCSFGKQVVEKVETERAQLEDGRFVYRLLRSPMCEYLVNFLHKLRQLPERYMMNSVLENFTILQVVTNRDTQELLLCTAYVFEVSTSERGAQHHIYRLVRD
Chain of TEAD4 (Q15561 whole entry): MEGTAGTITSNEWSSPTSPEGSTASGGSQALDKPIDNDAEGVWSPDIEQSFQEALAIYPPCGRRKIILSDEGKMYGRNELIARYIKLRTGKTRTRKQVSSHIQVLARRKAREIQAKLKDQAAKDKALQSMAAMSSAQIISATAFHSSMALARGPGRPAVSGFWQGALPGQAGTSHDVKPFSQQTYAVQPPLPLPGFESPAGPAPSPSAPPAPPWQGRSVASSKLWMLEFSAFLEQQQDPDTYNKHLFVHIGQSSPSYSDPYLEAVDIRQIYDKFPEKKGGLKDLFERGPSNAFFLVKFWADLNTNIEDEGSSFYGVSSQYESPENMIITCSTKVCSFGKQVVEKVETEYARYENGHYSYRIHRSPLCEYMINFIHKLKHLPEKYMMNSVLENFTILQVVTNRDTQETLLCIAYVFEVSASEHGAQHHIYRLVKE

Row | IC50 (TEAD2) [nM] | IC50 (TEAD4) [nM] | SMILES | cell-based TEAD1 palmitoylation (alkyne palmitic acid labelling, HEK293A) (TEAD1)
1 | 617 |  | O=C(CSc1nncs1)Nc1ccc(C23CC4CC(CC(C4)C2)C3)cc1 [MGH-CP28, 2-((1,3,4-thiadiazol-2-yl)thio)-N-(4-((1 S,3 R,5 S)-adamantan-1-yl)phenyl)acetamide] | 
2 | 106 | 852 | O=C(CSc1nnc[nH]1)Nc1ccc(C23CC4CC(CC(C4)C2)C3)cc1Br [MGH-CP12, 2-((4H−1,2,4-triazol-3-yl)thio)-N-(4-((1 S,3 R,5 S)-adamantan-1-yl)−2-bromophenyl)acetamide] | MGH-CP12 inhibits TEAD1 palmitoylation in cells more potently than MGH-CP1 (Fig. 1d)
3 |  |  | O=C(CSc1nnc[nH]1)Nc1ccc(C23CC4CC(CC(C4)C2)C3)cc1 [MGH-CP1, 2-((4H−1,2,4-triazol-3-yl)thio)-N-(4-((1 S,3 R,5 S)-adamantan-1-yl)phenyl)acetamide] | MGH-CP12 inhibits TEAD1 palmitoylation in cells more potently than MGH-CP1 (Fig. 1d)
